How the values were obtained:
Tankyrase 1 (TNKS1) = molecular target: T1, Tankyrase 1 (TNKS1) (Homo sapiens, UniProt O95271); assay: μHTS-TNKS-IWR2 TR-FRET Binding Assay (Example 71), TNKS1
T1 construct: His6-TNKS1, MW=28.2 KDa (construct: 1088-1327, 1266M)
Experimental: (§1) μHTS-TNKS-IWR2 TR-FRET Binding Assay (10 μL/well in BD1536-well plate, a single point)
(§2) Assay buffer 1a (AB1a) for TNKS dilution: 50 mM Tris, pH 7.4, 100 mM sodium chloride solution, 1 mM magnesium chloride solution, 1 mM DL-dithiothreitol solution, 0.2 mg/mL bovine serum albumin solution, 0.025% NP-40. Assay buffer 1b (AB 1b) for Biotin-IWR2 dilution: 50 mM Tris, pH 7.4, 100 mM sodium chloride solution, 1 mM magnesium chloride solution, 1 mM DL-dithiothreitol solution, 0.2 mg/mL bovine serum albumin solution, 0.05% NP-40 Assay buffer 1c (AB 1c) for compound dilution: 50 mM Tris, pH 7.4, 100 mM sodium chloride solution, 1 mM magnesium chloride solution, 1 mM DL-dithiothreitol solution, 0.2 mg/mL bovine serum albumin solution Assay buffer 2 (AB2) for Eu/APC: 50 mM Tris, pH 7.4, 100 mM sodium chloride solution, 1 mM magnesium chloride solution, 0.2 mg/mL bovine serum albumin solution
(§3) Transfer 3 μL/well of above solution (solution 1,2,3) to an empty assay plate (BD1536-well plate) as follows: TOTAL and cpd wells: Solution 1 (Biotin-IWR2): BLANK wells: Solution 2 (No Biotin-IWR2): POSITIVE CONTROL wells: Solution 3 (Biotin-IWR2XAV939) Transfer 3 μL/well of the above diluted compound solutions or compound dilution buffer to the above assay plate. Add 2 μL/well of 300 nM TNKS stock solution (4) to every well in the above assay plate. Centrifuge the assay plate at 2100 rpm for 2 min. Incubate the assay plate at 26° C. for 30 minutes. Add 2 μL/well 3.5 nMEu/50 nM APC solution (5) to every well in the above assay plate. Centrifuge the assay plate at 2100 rpm for 2 min. Incubate the assay plate at 26° C. for 60 min.

tankyrase 2 (His6-TNKS2) = molecular target: T2, tankyrase 2 (His6-TNKS2) (Homo sapiens, UniProt Q9H2K2); assay: μHTS-TNKS-IWR2 TR-FRET Binding Assay (Example 71), TNKS2; conditions: footnote 1: Tankyrase 1 and 2 inhibition assay in Example 71 (TR-FRET)
T2 construct: His6-tankyrase 2 (construct: 934-1166) (His6-TNKS2)
Experimental: as §1
Biotin-4-((1S,2R,6S,7R)-3,5-Dioxo-4-aza-tricyclo[5.2.1.0*2,6*]dec-8-en-4-yl)-N-(4-methyl-quinolin-8-yl)-benzamide (Biotin-IWR2): 10 mM Biotin-IWR2 stock in DMSO, stored at −20° C. Positive control: 10 mM 2-(4-Trifluoromethyl-phenyl)-3,5,7,8-tetrahydro-thiopyrano[4,3-d]pyrimidin-4-one (XAV939) in DMSO, stored at −20° C.
as §2, §3

[1] = molecular target: T3, PARP1 (His6-PARP1, full length) (Homo sapiens, UniProt P09874); assay: TR-FRET Binding Assay (Example 71), PARP1; conditions: TR-FRET assay of Example 71 with His6-PARP1
T3 construct: His6-PARP1 (full length) can be substituted for His6-TNKS 1
Experimental: as §1
Tankyrase 1 (TNKS1): 184.3 μM=5.2 mg/mL His6-TNKS1, MW=28.2 KDa (construct: 1088-1327, 1266M) in 20 mM Tris pH 8, 150 mM NaCl, 10% glycerol, and 0.5 mM TCEP. Alternatively, His6-tankyrase 2 (construct: 934-1166) (His6-TNKS2) or His6-PARP1 (full length) can be substituted for His6-TNKS 1.
as §2
Prepare Biotinylated IWR2 stock solution (3.33× stock) for TOTL and compound wells: 200 nM Biotin-IWR2 in 5% DMSO/AB1b buffer
Prepare BLANK well stock solution: 5% DMSO/AB1b buffer Prepare POSITIVE CONTROL well stock solution (3.33× stock): 200 nM XAV939 in 200 nM Biotin-IWR2/5% DMSO/AB1b buffer Prepare TNKS1 stock solution (5× stock): 300 nM TNKS in AB1a buffer. (Alternatively, use TNKS2 or PARP1 stock solutions.) Prepare Eu/APC stock solution (5× stock): 3.5 nM Eu-SA/50 nM APC-His6Ab in AB2 buffer.
Add 25 μL/well 1.5% DMSO/AB1c buffer in each compound well to the compound concentration at 74 μM in 8.8% DMSO/AB1c buffer or in the 2 μL DMSO CONTROL wells (BLANK, TOTAL and POSITIVE wells) in the compound plate. Transfer 3 μL/well of above solution (solution 1,2,3) to an empty assay plate (BD1536-well plate) as follows: TOTAL and cpd wells: Solution 1 (Biotin-IWR2): BLANK wells: Solution 2 (No Biotin-IWR2): POSITIVE CONTROL wells: Solution 3 (Biotin-IWR2XAV939) Transfer 3 μL/well of the above diluted compound solutions or compound dilution buffer to the above assay plate. Add 2 μL/well of 300 nM TNKS stock solution (4) to every well in the above assay plate. Centrifuge the assay plate at 2100 rpm for 2 min. Incubate the assay plate at 26° C. for 30 minutes. Add 2 μL/well 3.5 nMEu/50 nM APC solution (5) to every well in the above assay plate. Centrifuge the assay plate at 2100 rpm for 2 min. Incubate the assay plate at 26° C. for 60 min. Read the assay plate immediately at excitation wavelength of 330 nm and emission wavelength of […] in time resolved fluorescence mode.
. Representative compound data for the PARP1 assay is in TABLE 2 (below) Values are in μM.

T3 sequence (P09874 whole entry, species assumed): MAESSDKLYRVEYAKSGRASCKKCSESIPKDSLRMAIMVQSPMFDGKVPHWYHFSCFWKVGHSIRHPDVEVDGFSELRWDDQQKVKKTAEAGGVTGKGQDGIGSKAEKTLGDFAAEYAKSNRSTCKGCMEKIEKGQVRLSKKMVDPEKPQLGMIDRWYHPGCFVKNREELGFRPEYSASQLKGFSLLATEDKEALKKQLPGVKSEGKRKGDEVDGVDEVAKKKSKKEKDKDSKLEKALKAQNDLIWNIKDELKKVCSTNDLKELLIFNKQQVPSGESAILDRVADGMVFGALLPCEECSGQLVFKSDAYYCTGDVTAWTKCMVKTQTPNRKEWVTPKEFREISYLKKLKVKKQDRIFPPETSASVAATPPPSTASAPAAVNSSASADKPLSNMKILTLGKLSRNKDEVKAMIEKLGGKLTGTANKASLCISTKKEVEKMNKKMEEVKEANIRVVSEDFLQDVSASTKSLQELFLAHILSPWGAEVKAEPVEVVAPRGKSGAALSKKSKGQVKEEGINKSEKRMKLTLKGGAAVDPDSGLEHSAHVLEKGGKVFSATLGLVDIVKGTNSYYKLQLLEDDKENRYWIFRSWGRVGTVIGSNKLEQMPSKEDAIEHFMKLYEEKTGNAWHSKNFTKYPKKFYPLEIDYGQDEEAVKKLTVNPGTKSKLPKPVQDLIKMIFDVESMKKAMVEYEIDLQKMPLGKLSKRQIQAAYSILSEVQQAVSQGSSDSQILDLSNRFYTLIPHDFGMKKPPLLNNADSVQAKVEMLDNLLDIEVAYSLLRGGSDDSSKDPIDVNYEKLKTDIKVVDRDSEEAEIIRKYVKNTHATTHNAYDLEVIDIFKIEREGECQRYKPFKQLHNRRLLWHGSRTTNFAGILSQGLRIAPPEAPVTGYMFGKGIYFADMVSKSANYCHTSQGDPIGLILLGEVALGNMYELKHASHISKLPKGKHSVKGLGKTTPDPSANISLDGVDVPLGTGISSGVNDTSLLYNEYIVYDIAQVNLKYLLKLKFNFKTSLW
T2 sequence (Q9H2K2 934-1166): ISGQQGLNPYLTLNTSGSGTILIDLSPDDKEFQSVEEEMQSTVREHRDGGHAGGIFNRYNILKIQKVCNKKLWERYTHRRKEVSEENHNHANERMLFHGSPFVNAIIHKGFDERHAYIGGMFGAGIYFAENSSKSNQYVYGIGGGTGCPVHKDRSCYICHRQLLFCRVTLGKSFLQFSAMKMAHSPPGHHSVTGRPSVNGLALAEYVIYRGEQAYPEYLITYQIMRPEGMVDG
T1 sequence (O95271 1088-1327): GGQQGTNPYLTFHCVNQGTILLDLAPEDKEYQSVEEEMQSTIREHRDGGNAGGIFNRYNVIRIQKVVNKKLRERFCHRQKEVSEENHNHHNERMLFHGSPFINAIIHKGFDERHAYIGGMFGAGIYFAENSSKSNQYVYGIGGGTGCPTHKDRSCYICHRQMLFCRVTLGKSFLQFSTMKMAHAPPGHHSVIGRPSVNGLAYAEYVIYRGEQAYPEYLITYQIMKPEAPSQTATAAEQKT

SMILES | IC50 (Tankyrase 1 (TNKS1)) [nM] | IC50 (tankyrase 2 (His6-TNKS2)) [nM] | IC50 [1] [nM]
CC(C)C1Cc2[nH]c(=O)c3ccc(Cl)cc3c2CO1 (racemic) [Compound I-27, rac-6-Chloro-2-isopropyl-1,2,4,10-tetrahydro-3-oxa-10-aza-phenanthren-9-one] | 39.1 | 53.5 | 197
CC(C)C1Cc2[nH]c(=O)c3ccsc3c2CO1 (racemic) [Compound I-28, rac-7-Isopropyl-5,6,7,9-tetrahydro-8-oxa-1-thia-5-aza-cyclopenta[a]naphthalen-4-one] | 81.8 | 177 | 1920
O=c1[nH]c2c(c3cnccc13)COC(C1CCCC1)C2 (racemic) [Compound I-31, rac-7-Cyclopentyl-5,7,8,9-tetrahydro-6-oxa-3,9-diaza-phenanthren-10-one] | 70.8 | 89.1 | 1790
O=C(C1CC1)N1CCC(C2Cc3[nH]c(=O)c4ccccc4c3CO2)CC1 (racemic) [Compound I-33, rac-2-(1-Cyclopropanecarbonyl-piperidin-4-yl)-1,2,4,10-tetrahydro-3-oxa-10-aza-phenanthren-9-one] | 36.5 | 52 | 94.8
CC(C)C1Cc2[nH]c(=O)c3ccc(C4CC4)cc3c2CO1 (racemic) [Compound I-38, rac-6-Cyclopropyl-2-isopropyl-1,2,4,10-tetrahydro-3-oxa-10-aza-phenanthren-9-one] | 91 | 196 | 18700
Cn1ncc2c(=O)[nH]c3c(c21)COC(C(C)(C)C)C3 (racemic) [Compound I-42, rac-7-tert-Butyl-1-methyl-5,6,7,9-tetrahydro-1H-8-oxa-1,2,5-triaza-cyclopenta[a]naphthalen-4-one] | 60.9 | 87.7 | 2100

Further lines, results first:

IC50 (Tankyrase 1 (TNKS1)) [nM] | IC50 (tankyrase 2 (His6-TNKS2)) [nM] | IC50 [1] [nM] | SMILES
25.5 | 27 | 67.7 | CC(=O)N1CCC(C2Cc3[nH]c(=O)c4ccccc4c3CO2)CC1 (racemic) [Compound I-25, rac-2-(1-Acetyl-piperidin-4-yl)-1,2,4,10-tetrahydro-3-oxa-10-aza-phenanthren-9-one]
48.2 | 55.4 | 98.7 | CS(=O)(=O)N1CCC(C2Cc3[nH]c(=O)c4ccccc4c3CO2)CC1 (racemic) [Compound I-26, rac-2-(1-Methanesulfonyl-piperidin-4-yl)-1,2,4,10-tetrahydro-3-oxa-10-aza-phenanthren-9-one]
67.2 | 113 | 126 | CC(C)(COCc1ccccc1)C1Cc2[nH]c(=O)c3ccccc3c2CO1 (racemic) [Compound I-29, rac-2-(2-Benzyloxy-1,1-dimethyl-ethyl)-1,2,4,10-tetrahydro-3-oxa-10-aza-phenanthren-9-one]
30.8 | 40.5 | 81.8 | CC(C)OC(=O)N1CCC(C2Cc3[nH]c(=O)c4ccccc4c3CO2)CC1 (racemic) [Compound I-32, rac-4-(9-Oxo-1,4,9,10-tetrahydro-2H-3-oxa-10-aza-phenanthren-2-yl)-piperidine-1-carboxylic acid isopropyl ester]
84.9 | 183 | 3470 | CC(C)(C)C1Cc2[nH]c(=O)c3ccncc3c2CO1 (racemic) [Compound I-34, rac-7-tert-Butyl-4a,5,7,8,9,10a-hexahydro-6-oxa-3,9-diaza-phenanthren-10-one]
32.6 | 35.5 | 222 | CC(C)(C)C1Cc2[nH]c(=O)c3sccc3c2CO1 (racemic) [Compound I-40, rac-7-tert-Butyl-5,6,7,9-tetrahydro-8-oxa-3-thia-5-aza-cyclopenta[a]naphthalen-4-one]
21.2 | 26 | 46.9 | Cc1cccc2c(=O)[nH]c3c(c12)COC(C(C)(C)C)C3 (racemic) [Compound I-41, rac-2-tert-Butyl-5-methyl-1,2,4,10-tetrahydro-3-oxa-10-aza-phenanthren-9-one]

Source: US20140121231A1, “PYRANOPYRIDONE INHIBITORS OF TANKYRASE” (Hoffmann-La Roche, Inc., priority 2012, published 2014)
